Measurements as given in patent US20240228458A1, “PYRIMIDINE DERIVATIVE HAVING PROTEIN KINASE INHIBITORY ACTIVITY, AND THERAPEUTIC PHARMACEUTICAL COMPOSITION COMPRISING SAME” (THERAPEX CO., LTD., priority 2021, published 2024).

Assays:
Type in all cases: cell-based
[1] = test system: Ba/F3 cells expressing EGFR-wt; test: Growth inhibition (GI50) of Ba/F3 cells expressing EGFR-wt, Celltiter glo; conditions: Mus musculus, BaF3, 72 h
Outline: (§1)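 Ba/F3 cells carrying each EGFR variant were plated at 100,000 cells/ml; after 4 h, compound was added as 10-point 4-fold dilutions (top stock 2 mM, 0.5% DMSO). After 72 h at 37 °C, viability was read by CellTiter-Glo; GI50 is the molar concentration (μM) giving 50% growth inhibition.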

[2] = test system: Ba/F3 cells expressing del19/T790M/C797S (EGFR-DTC); test: Growth inhibition (GI50) of Ba/F3 cells expressing del19/T790M/C797S (EGFR-DTC), Celltiter glo; conditions: Mus musculus, BaF3, 72 h
Outline: as §1

[3] = test system: Ba/F3 cells expressing L858R/T790M/C797S (EGFR-LTC); test: Growth inhibition (GI50) of Ba/F3 cells expressing L858R/T790M/C797S (EGFR-LTC), Celltiter glo; conditions: Mus musculus, BaF3, 72 h
Outline: as §1

[4] = test system: Ba/F3 cells expressing del19/T790M (EGFR-DT); test: Growth inhibition (GI50) of Ba/F3 cells expressing del19/T790M (EGFR-DT), Celltiter glo; conditions: Mus musculus, BaF3, 72 h
Experimental: (§2) In this experimental example, a determination was made as to whether the compounds prepared in Examples 1-283 have the ability to inhibit the growth of Ba/F3 cells expressing EGFR-wt, del19/T790M/C797S (EGFR-DTC), L858R/T790M/C797S (EGFR-LTC), del19/T790M (EGFR-DT), and L858R/T790M (EGFR-LT) variants.
(§3) The parental Ba/F3 cell line is a population of cells that are not introduced with EGFR variants. Specifically, 100 μl of a cell line expressing each variant was plated in a 96-well plate at a density of 100,000 cells/ml. 10-point, 4-fold serial dilutions of each compound were prepared, starting at 2 mM. After 4 h, 0.5 μl of the compound (0.5% DMSO) was added, followed by incubation at 37° C. and 5% CO2 for 72 h. After incubation, the number of viable cells was measured using a Celltiter glo assay kit (Promega) and the GI50 of the compound was determined. The term “GI50” refers to the molar concentration (μM) of the compound required for 50% growth inhibition of cells.

[5] = test system: Ba/F3 cells expressing L858R/T790M (EGFR-LT); test: Growth inhibition (GI50) of Ba/F3 cells expressing L858R/T790M (EGFR-LT), Celltiter glo; conditions: Mus musculus, BaF3, 72 h
Experimental: as §2, §3

[6] = test system: parental Ba/F3 cell line; test: Growth inhibition (GI50) of the parental Ba/F3 cell line (not introduced with EGFR variants), Celltiter glo; conditions: Mus musculus, BaF3, 72 h, parental Ba/F3 cells
Outline: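 Viable cell count by CellTiter-Glo after 72 h at 37 °C gave GI50 values (μM, 50% growth inhibition). Cells lacking EGFR variants were seeded at 100,000 cells/ml and dosed 4 h later with 4-fold serial dilutions from a 2 mM stock, 0.5% DMSO.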

GI50 [1] | GI50 [2] | GI50 [3] | GI50 [4] | GI50 [5] | Structure (SMILES) | GI50 [6]
500 to 2000 nM | 25 to 100 nM | 100 to 500 nM | 25 to 100 nM | 100 to 500 nM | COc1ccc(NS(C)(=O)=O)c(Nc2nc(Nc3cc(C)c(N4CCC(N5CCC(N(C)C)C5)CC4)cc3OC)ncc2Cl)c1 (stereo not drawn) [Example 235, N-(2-((5-chloro-2-((4-(4-(3-(dimethylamino)pyrrolidin-1-yl)piperidin-1-yl)-2-methoxy-5-methylphenyl)amino)pyrimidin-4-yl)amino)-4-methoxyphenyl)methanesulfonamide] | 2000 to 10000 nM
500 to 2000 nM | 100 to 500 nM | 25 to 100 nM | 25 to 100 nM | 25 to 100 nM | Cc1cc(Nc2ncc(Cl)c(Nc3cc4c(cc3NS(C)(=O)=O)CCO4)n2)c(Cl)cc1N1CCC(N2CCC(N(C)C)C2)CC1 (stereo not drawn) [Example 210, N-(6-((5-chloro-2-((2-chloro-4-(4-(3-(dimethylamino)pyrrolidin-1-yl)piperidin-1-yl)-5-methylphenyl)amino)pyrimidin-4-yl)amino)-2,3-dihydrobenzofuran-5-yl)methanesulfonamide] | 2000 to 10000 nM
100 to 500 nM | 100 to 500 nM | 25 to 100 nM | 1 to 25 nM | 1 to 25 nM | COc1cc(N2CCC(N3CCCN(C)CC3)CC2)c(Br)cc1Nc1ncc(Cl)c(Nc2cc3c(cc2NS(C)(=O)=O)CCO3)n1 [Example 282, N-(6-((2-((5-bromo-2-methoxy-4-(4-(4-methyl-1,4-diazepan-1-yl)piperidin-1-yl)phenyl)amino)-5-chloropyrimidin-4-yl)amino)-2,3-dihydrobenzofuran-5-yl)methanesulfonamide] | 2000 to 10000 nM
2000 to 10000 nM | 100 to 500 nM | 100 to 500 nM | 100 to 500 nM | 100 to 500 nM | COc1ccc(NS(C)(=O)=O)c(Nc2nc(Nc3ccc(N4CCC(N5CCN(C)CC5)CC4)cc3OC)ncc2Cl)c1 [Example 231, N-(2-((5-chloro-2-((2-methoxy-4-(4-(4-methylpiperazin-1-yl)piperidin-1-yl)phenyl)amino)pyrimidin-4-yl)amino)-4-methoxyphenyl)methanesulfonamide] | 2000 to 10000 nM
100 to 500 nM | 1 to 25 nM | 1 to 25 nM | 1 to 25 nM | 1 to 25 nM | COc1cc(N2CCC(N3CCN(C)CC3)CC2)c(C)cc1Nc1ncc(Br)c(Nc2cc(Cl)ccc2NS(C)(=O)=O)n1 [Example 85] | 500 to 2000 nM
100 to 500 nM | 25 to 100 nM | 25 to 100 nM | 1 to 25 nM | 25 to 100 nM | COc1cc(N2CCC(N3CCNCC3)CC2)c(C)cc1Nc1ncc(Br)c(Nc2cc3c(cc2NS(C)(=O)=O)CCO3)n1 [Example 215, N-(6-((5-bromo-2-((2-methoxy-5-methyl-4-(4-(piperazin-1-yl)piperidin-1-yl)phenyl)amino)pyrimidin-4-yl)amino)-2,3-dihydrobenzofuran-5-yl)methanesulfonamide] | 2000 to 10000 nM
2000 to 10000 nM | 500 to 2000 nM | 500 to 2000 nM | 100 to 500 nM | 100 to 500 nM | CN1CCN(C2CCN(c3ccc4cc(Nc5ncc(Cl)c(Nc6cc7c(cc6NS(C)(=O)=O)CCO7)n5)ccc4n3)CC2)CC1 [Example 223, N-(6-((5-chloro-2-((2-(4-(4-methylpiperazin-1-yl)piperidin-1-yl)quinolin-6-yl)amino)pyrimidin-4-yl)amino)-2,3-dihydrobenzofuran-5-yl)methanesulfonamide] | 2000 to 10000 nM
2000 to 10000 nM | 25 to 100 nM | 25 to 100 nM | 25 to 100 nM | 25 to 100 nM | Cc1cc(Nc2ncc(Cl)c(Nc3cc(Cl)c(F)cc3NS(C)(=O)=O)n2)c(Cl)cc1N1CCC(N2CCN(C)CC2)CC1 [Example 182, N-(4-chloro-2-((5-chloro-2-((2-chloro-5-methyl-4-(4-(4-methylpiperazin-1-yl)piperidin-1-yl)phenyl)amino)pyrimidin-4-yl)amino)-5-fluorophenyl)methanesulfonamide] | > 10000 nM
500 to 2000 nM | 1 to 25 nM | 25 to 100 nM | 25 to 100 nM | 25 to 100 nM | CN1CCN(C2CCN(c3cc(Cl)c(Nc4ncc(Br)c(Nc5cc6c(cc5N(C)S(C)(=O)=O)CCO6)n4)cc3Cl)CC2)CC1 [Example 253, N-(6-((5-bromo-2-((2,5-dichloro-4-(4-(4-methylpiperazin-1-yl)piperidin-1-yl)phenyl)amino)pyrimidin-4-yl)amino)-2,3-dihydrobenzofuran-5-yl)-N-methylmethanesulfonamide] | 100 to 500 nM
100 to 500 nM | 25 to 100 nM | 25 to 100 nM | 1 to 25 nM | 1 to 25 nM | Cc1cc(Nc2ncc(Br)c(Nc3cc4c(cc3NS(C)(=O)=O)CCO4)n2)c(Cl)cc1N1CCC(N2CCCC(N(C)C)C2)CC1 (stereo not drawn) [Example 214, N-(6-((5-bromo-2-((2-chloro-4-(3-(dimethylamino)-[1,4′-bipiperidin]-1′-yl)-5-methylphenyl)amino)pyrimidin-4-yl)amino)-2,3-dihydrobenzofuran-5-yl)methanesulfonamide] | 2000 to 10000 nM
100 to 500 nM | 100 to 500 nM | 25 to 100 nM | 1 to 25 nM | 1 to 25 nM | COc1cc(N2CCC(N3CCC(N(C)C)C3)CC2)c(Br)cc1Nc1ncc(Cl)c(Nc2cc3c(cc2NS(C)(=O)=O)CCO3)n1 (stereo not drawn) [Example 283, N-(6-((2-((5-bromo-4-(4-(3-(dimethylamino)pyrrolidin-1-yl)piperidin-1-yl)-2-methoxyphenyl)amino)-5-chloropyrimidin-4-yl)amino)-2,3-dihydrobenzofuran-5-yl)methanesulfonamide] | 2000 to 10000 nM
2000 to 10000 nM | 500 to 2000 nM | 100 to 500 nM | 25 to 100 nM | 100 to 500 nM | COc1cc(N2CCC(N3CCN(C4CC4)CC3)CC2)c(C)cc1Nc1ncc(Cl)c(Nc2cc3c(cc2N(C)S(C)(=O)=O)CCO3)n1 [Example 266, N-(6-((5-chloro-2-((4-(4-(4-cyclopropylpiperazin-1-yl)piperidin-1-yl)-2-methoxy-5-methylphenyl)amino)pyrimidin-4-yl)amino)-2,3-dihydrobenzofuran-5-yl)-N-methylmethanesulfonamide] | 2000 to 10000 nM
1 to 25 nM | 1 to 25 nM | 25 to 100 nM | 1 to 25 nM | 1 to 25 nM | Cc1cc(Nc2ncc(Br)c(Nc3cc(Cl)ccc3N(C)S(C)(=O)=O)n2)c(Cl)cc1N1CCC(N2CCC(N(C)C)C2)CC1 (stereo not drawn) [Example 227, N-(2-((5-bromo-2-((2-chloro-4-(4-(3-(dimethylamino)pyrrolidin-1-yl)piperidin-1-yl)-5-methylphenyl)amino)pyrimidin-4-yl)amino)-4-chlorophenyl)-N-methylmethanesulfonamide] | 100 to 500 nM
500 to 2000 nM | 100 to 500 nM | 1 to 25 nM | 100 to 500 nM | 1 to 25 nM | CN1CCN(C2CCN(c3ccc(Nc4ncc(Br)c(Nc5cc6c(cc5NS(C)(=O)=O)CCO6)n4)c(Cl)c3)CC2)CC1 [Example 246] | 2000 to 10000 nM
2000 to 10000 nM | 500 to 2000 nM | 500 to 2000 nM | 500 to 2000 nM | 500 to 2000 nM | COc1nc(N2C[C@@H](C)N(C)[C@@H](C)C2)ccc1Nc1ncc(Cl)c(Nc2ccc(F)cc2NS(C)(=O)=O)n1 [Example 20, N-(2-((5-chloro-2-((2-methoxy-6-((3S,5R)-3,4,5-trimethylpiperazin-1-yl)pyridin-3-yl)amino)pyrimidin-4-yl)amino)-5-fluorophenyl)methanesulfonamide] | 2000 to 10000 nM
25 to 100 nM | 1 to 25 nM | 1 to 25 nM | 1 to 25 nM | 25 to 100 nM | COc1cc(N2CCC(N3CCCN(C)CC3)CC2)c(Cl)cc1Nc1ncc(Br)c(Nc2cc3c(cc2NS(C)(=O)=O)CCO3)n1 [Example 189, N-(6-((5-bromo-2-((5-chloro-2-methoxy-4-(4-(4-methyl-1,4-diazepan-1-yl)piperidin-1-yl)phenyl)amino)pyrimidin-4-yl)amino)-2,3-dihydrobenzofuran-5-yl)methanesulfonamide] | 500 to 2000 nM
500 to 2000 nM | 25 to 100 nM | 100 to 500 nM | 100 to 500 nM | 100 to 500 nM | COc1cc(N2CCC(N3CCN(C)CC3)CC2)c(C)cc1Nc1ncc(Cl)c(Nc2cc(C(C)C)ccc2NS(C)(=O)=O)n1 [Example 160, N-(2-((5-chloro-2-((2-methoxy-5-methyl-4-(4-(4-methylpiperazin-1-yl)piperidin-1-yl)phenyl)amino)pyrimidin-4-yl)amino)-4-isopropylphenyl)methanesulfonamide] | 2000 to 10000 nM
